Where “and” joins values, the source holds several entries; their conditions need not be identical. Equal entries are not always repeated. Where two headings read alike, the source gives them in different places.
Legend:
PR expression = test: ER agonism: PR expression in Ishikawa cells by western blot; format: cell-based; details: for PR expression (% vs 10 nM E2): 100 nM compound, individual replicates; for PR expression in the Ishikawa endometrial cell line: 100 nM, 48 h
Experimental: Fig. 8 Evidence of ER agonism of AZ’6421 and compound 8 in vitro and in vivo. a 100 nM compound or 10 nM estradiol (E2) were incubated with Ishikawa cells for 48 h and lysates measured for PR expression by western blot. b Normalised rat uterine weight shown as % change from respective vehicle control after 4 days dosing. c Representative H&E stained images taken from sections of uterine horn after 4 days of dosing. d Total plasma exposure of AZ’6421 and its metabolite 8 following dosing of 100 mg/kg BID or 30 mg/kg BID AZ’6421. Plasma samples were taken 4 hr after the 4th dose, at the same time as the uterus was weighed and sectioned for H&E staining.
Cells were seeded into 12-well tissue culture-treated plates at 0.5 x 10^6 cells/well in phenol red-free RPMI containing 5% (v/v) charcoal-stripped FBS (F6765, Sigma) and left to adhere overnight. In experiments to detect agonism or for SILAC experiments, FBS was double stripped using activated charcoal. Cells were treated with compound or 0.1% DMSO vehicle control for the times indicated prior to being lysed in Pierce RIPA buffer (Thermo Scientific), supplemented with protease and phosphatase inhibitors. Expression levels of proteins were determined by standard western blotting techniques (BioRad 4%-12% Bis-Tris gels). Antibodies were diluted in 5% milk-PBS-Tween and protein levels were detected using Pierce WestDura chemiluminescent reagents followed by visualisation and quantification on a Syngene ChemiGenius Imager. Where blots were quantified, protein levels were normalised to beta-actin or vinculin control and expressed as % of vehicle control.

Chromatographic LogD = format: physicochemical; details: Waters Acquity BEH C18 column, pH 7.4
Experimental: An HPLC with UV detection using diode array detection over a wavelength range of 210-320 nm and confirmation by electrospray mass spectrometry (pos/neg ionisation) is used to determine the chromatographic LogD of compounds. Test compounds, calibrants, and QC samples are prepared as 10 mM stocks in DMSO and further diluted to a final concentration of 0.6 mM in DMSO. […] The chromatographic system is calibrated using standards with known literature values of octanol-water partition coefficient at pH 7.4 (logD7.4) and retention factors, k’, of calibrants, QCs, and samples calculated using equation: k’=(rt-t0)/t0.

[1] = target: T1, recombinant human ERα ligand binding domain (LBD) (Homo sapiens, UniProt P03372); test: ERα binding assay (LanthaScreen TR-FRET competition); details: mean ± s.d.; read-out: ERα binding IC50
T1 construct: purchased Invitrogen PV4543
T1 sequence (P03372 311-547 limits assumed): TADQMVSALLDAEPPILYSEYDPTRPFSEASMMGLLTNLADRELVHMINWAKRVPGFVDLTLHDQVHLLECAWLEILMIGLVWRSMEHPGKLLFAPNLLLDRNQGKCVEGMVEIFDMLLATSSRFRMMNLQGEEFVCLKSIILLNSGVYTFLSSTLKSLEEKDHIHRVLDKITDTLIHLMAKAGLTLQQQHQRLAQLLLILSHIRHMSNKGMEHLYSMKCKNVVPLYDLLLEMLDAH
Experimental: The ability of compounds to bind to isolated ERα Ligand binding domain (ERα–LBD (GST)) was assessed in competition assays using a LanthaScreenTM Time-Resolved Fluorescence Resonance Energy Transfer (TR-FRET) detection end-point. For the LanthaScreen TR-FRET endpoint, a suitable fluorophore (Fluormone ES2, Product code P2645) and recombinant human ERα ligand binding domain (LBD) (product code PV4543) were purchased from Invitrogen and used to measure compound binding. A terbium-labelled anti-GST antibody (Product code PV3551) is used to indirectly label the receptor by binding to its GST tag, and competitive binding is detected by a test compounds’ ability to displace the fluorescent ligand resulting in a loss of TR-FRET signal between the Tb-anti-GST antibody and the tracer. The assay was performed with all reagent additions carried out using the Beckman Coulter BioRAPTR FRD microfluidic workstation: […]

[2] = Plasma protein binding (RED device), mouse plasma; format: in vitro ADME; details: for Mouse fup: fraction unbound in plasma; for Mouse fup, Free: fraction free
Experimental: Plasma protein binding was completed using a RED device. The test compound was prepared to 1 mM in 100% DMSO and further diluted in plasma to achieve a final compound concentration of 5 μM in the incubation. Phosphate buffered solution pH 7.4 (500 μL) was added to the receiver chamber of the RED device and spiked plasma (300 μL) was added to the donor chamber. The plate was covered with a gas-permeable lid and incubated for 18 h at 37 °C with 5% CO2 on an orbital shaker at 300 rpm. At the end of incubation, 50 μL of post-dialysis sample from the donor and receiver wells were aliquot into separate wells and matrix-matched with 50 μL of phosphate buffer solution pH 7.4 or blank plasma, respectively. The samples were subsequently quenched separately in 400 μL of ice-cold 100% acetonitrile. Quenched samples were shaken at 1000 rpm for 10 min and centrifuged for 30 min at 4000 rpm to pellet precipitated protein. The supernatant fraction was further diluted 1:1 with deionised water for analysis by LC MS/MS[17].

[3] = reverse-phase HPLC, read-out: chrom LogD
[4] = reversed-phase HPLC, Table 2 source data, read-out: ChromLogD

| Structure (SMILES) | PR expression (% vs 10 nM E2) (PR expression) | PR expression in the Ishikawa endometrial cell line (PR expression) | chromatographic logD (Chromatographic LogD; [3]) | chromatographic logD (Chromatographic LogD; [4]) | IC50 [1] [nM] | free in mouse plasma [2] [%] | Mouse fup [2] | difference in the free levels vs AZ’6421 ([2]; mouse plasma) [fold] | Mouse fup, Free ([2]; mouse plasma) | PR expression (% vs 10 nM E2) (PR expression; listed as AZ'6421) |
| --- | --- | --- | --- | --- | --- | --- | --- | --- | --- | --- |
| C[C@@H]1Cc2c([nH]c3ccccc23)[C@@H](c2c(F)cc(OCCC(=O)O)cc2F)N1CC(C)(C)F [Compound 8] | 4.18% and 6.31% | induced PR expression to a similar extent as AZD9496 | 3.8 | 3.8 | < 0.5 | 0.5 | 0.005 (1) | 25 | 0.005 |  |
| Cc1ncsc1-c1ccc(CNC(=O)[C@@H]2C[C@@H](O)CN2C(=O)[C@@H](NC(=O)COCCCOCCCOc2cc(F)c([C@@H]3c4[nH]c5ccccc5c4C[C@@H](C)N3CC(C)(C)F)c(F)c2)C(C)(C)C)cc1 [Compound 5] |  | failed to induce PR expression | 6.6 ± 0.4 | 6.6 | < 0.6 | 0.02 | 0.0002 (1) |  | 0.0002 | 0.39% and 0.32% |

Reference: PMC11091220, “Metabolism-driven in vitro/in vivo disconnect of an oral ERɑ VHL-PROTAC” (Communications Biology, 2024)
